From EP4650351A1, “INHIBITOR OF COMPLEMENT FACTOR B” (Nanjing Chia Tai Tianqing Pharmaceutical Co., Ltd., priority 2023, dated 2024)
One block for each compound: values may come before it.

Assays:
[1] = molecular target: T1, human complement factor B (Homo sapiens, UniProt P00751); test: TR-FRET competitive binding assay of human complement factor B (Cy5-labeled probe); conditions: inhibitory activity against complement factor B; biotin-labeled factor B 25 nM, Cy5 probe 75 nM, 4 °C
T1 construct: purchased ComplementTech A135

[2] = system: alternative complement pathway in human serum; test: Complement deposition assay of serum alternative pathway (Wieslab Complement system Alternative pathway kit); assay type: biochemical; conditions: human serum diluted 18-fold, 37 °C 60 minutes, absorbance 405 nm
Protocol: The Wieslab® Complement system Alternative pathway kit (WIESLAB® Complement system Alternative pathway AP330 RUO) was used to detect the inhibitory activity of the compounds on the alternative complement pathway in human serum. Human serum was diluted 18-fold with the kit diluent. The diluted serum was added to a 96-well plate at 130 µL/well. Using a compound titrator (Tecan, D300e), test compounds at corresponding concentrations were added. The test concentration of the compounds started at 10 µM, with 3-fold serial dilution for 6 concentration points, detected in single wells. The DMSO ratio was uniformly adjusted to 0.1% using DMSO in all drug-treated wells. In the positive control wells, 0.1% DMSO and 130 µL of diluted serum were added; in the negative control wells, 0.1% DMSO and 130 µL of the kit diluent were added. The mixtures were pre-incubated at room temperature for 15 min. The incubated mixtures were transferred to the 96-well plate provided by the kit at 100 µL per well, incubated at 37 °C for 60 minutes, and the liquid in the wells was discarded. 300 µL of the washing solution in the kit was added to each well. The wells were washed three times. 100 µL of the conjugated antibody Conjugate in the kit was added to each well, and it was incubated at room temperature for 30 minutes. The liquid in the wells was removed. 300 µL of the washing solution in the kit was added to each well and the wells were washed three times. 100 µL of the substrate solution was added to each well and incubated at room temperature for 30 minutes. […] Table 2. Results of complement deposition in serum alternative pathway

[3] = Pharmacokinetic study in mice; assay type: in vivo; conditions: mouse, 10 mg/kg, PO (10 mpk), male ICR (CD-1) mice, plasma
Protocol: Experimental Example 3: Pharmacokinetic study in mice
Purpose of the experiment: To investigate the plasma pharmacokinetics in male ICR (CD-1) mice after single intravenous administration and gavage administration of the compounds of the present disclosure.
Experimental animals: Male ICR (CD-1) mice, body weight 32-35 g; supplier: Vital River Laboratory Animal Technology Co., Ltd.
Experimental procedures: Intravenous Administration (IV); Oral Gavage (PO); the dose was 10 mg/kg (vehicle: water (containing 0.5% methylcellulose (w/v) and 0.5% Tween 80 (v/v)).
Sample collection: At each set time point, 40 µL of blood was collected from the orbital sinus of the experimental animals. Whole blood samples were placed in anticoagulant tubes containing EDTA-K2. The whole blood samples were centrifuged at 1500 g for 10 min to separate plasma. The upper-layer plasma samples were collected into sample tubes for LC-MS/MS analysis.
Data analysis: Plasma concentrations were processed using the non-compartmental model in WinNonlin™Version6.3 (Pharsight, Mountain View, CA) pharmacokinetic software. Pharmacokinetic parameters Cl, T1/2, Cmax, and AUC0-24 were calculated using the linear-log trapezoidal method, and the results were shown in the table below. Table 3. Results of the pharmacokinetic study

[4] = system: collagen antibody and lipopolysaccharide-induced arthritis (CAIA); test: Pharmacodynamic study in the mouse CAIA model (Experimental Example 5); assay type: in vivo, BALB/c mice; conditions: Mean; 20mg/kg bid oral, Day0-Day14; larger AUC = greater severity
Protocol: Experimental Animals: BALB/c mice, male, 6-8 weeks, 18-20 g; Supplier: Shanghai Jihui Laboratory Animal Care Co., Ltd 1. Induction of the mouse CAIA model: On Day 0, all mice were intravenously injected via the tail vein with 0.15 mL of Arthrogen-CIA 5-clone mixed type II collagen antibody (10 mg/mL, Chondrex). […] 2. Administration: Table 7. Administration groups and administration schemes [table] The experimental data are expressed as mean±standard error (mean ± S.E.M.). The data were analyzed by One-way ANOVA/Dunnett's using Graphpad Prism and by Repeat Measurement ANOVA/Bonferroni using SPSS. P< 0.05 was considered to indicate a significant difference. Arthritis scoring: Starting from the day of modeling, the incidence of arthritis in the limbs of the animals in each group was observed three times a week until the end of the experiment. According to the different degrees of lesions (erythema and swelling), the scoring was carried out according to the standard of 0-4 points. […] The larger the AUC, the greater the severity of arthritis was. […] Arthritis score AUC

[5] = system: collagen antibody and lipopolysaccharide-induced arthritis (CAIA); test: Collagen antibody-induced mouse arthritis model (Experimental Example 4); assay type: in vivo, BALB/c mice; conditions: Mean, 20 mg/kg oral twice a day
Protocol: Experimental animals: BALB/c mice, male, 6-8 weeks, 18-20 g; supplier: Beijing Vital River Laboratory Animal Technology Co., Ltd. 1. […] 2. Administration: Table 4. Administration groups and administration schemes [table] The data were analyzed by One-way ANOVA/Dunnett's using Graphpad Prism and by Repeat Measurement ANOVA/Bonferroni using SPSS. P< 0.05 was considered to indicate a significant difference. Arthritis scoring: Starting from the day of modeling, the incidence of arthritis in the limbs of the animals in each group was observed three times a week until the end of the experiment. According to the different degrees of lesions (erythema and swelling), the scoring was carried out according to the standard of 0-4 points. […] Joint swelling: Starting from the day of modeling, the thickness of the left and right foot pads of the animals was measured three times a week using a micrometer (Mitutoyo, 0-25 mm, minimal 0.001 mm) until the end of the experiment.

T1 sequence (P00751 26-764): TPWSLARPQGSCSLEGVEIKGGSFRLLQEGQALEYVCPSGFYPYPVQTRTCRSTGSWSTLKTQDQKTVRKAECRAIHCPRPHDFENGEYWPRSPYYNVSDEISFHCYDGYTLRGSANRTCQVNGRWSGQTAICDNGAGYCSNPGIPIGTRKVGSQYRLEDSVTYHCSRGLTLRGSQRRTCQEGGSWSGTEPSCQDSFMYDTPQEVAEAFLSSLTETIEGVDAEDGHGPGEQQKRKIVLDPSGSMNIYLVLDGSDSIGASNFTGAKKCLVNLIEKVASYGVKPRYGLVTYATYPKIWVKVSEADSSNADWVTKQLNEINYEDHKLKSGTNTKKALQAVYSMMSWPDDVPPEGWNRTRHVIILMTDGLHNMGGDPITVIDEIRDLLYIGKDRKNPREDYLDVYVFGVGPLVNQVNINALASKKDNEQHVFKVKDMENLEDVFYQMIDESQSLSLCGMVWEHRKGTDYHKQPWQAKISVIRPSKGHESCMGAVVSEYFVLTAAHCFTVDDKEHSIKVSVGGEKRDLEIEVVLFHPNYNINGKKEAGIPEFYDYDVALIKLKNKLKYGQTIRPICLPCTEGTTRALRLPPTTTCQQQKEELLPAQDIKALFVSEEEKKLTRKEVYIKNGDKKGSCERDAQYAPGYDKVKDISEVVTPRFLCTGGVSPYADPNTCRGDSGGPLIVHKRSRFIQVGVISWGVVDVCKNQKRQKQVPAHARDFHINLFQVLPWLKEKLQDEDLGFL

IC50 [1]: 12.4 nM
Cmax ([3]; in vivo): 601 ng/mL
AUC(0-t) at 24 h ([3]; in vivo, read-out: AUC0-24): 5750 ng·h/mL
SMILES: COc1cc(C)c2[nH]ccc2c1SC1CCN(CC(F)F)CC1c1ccc(C(=O)O)cc1 (single isomer, unassigned) [Example 16-2]
Arthritis score AUC [4]: 7.25

IC50 [1]: 6 nM
IC50 [2]: 54.1 nM
Cmax [3]: 1290 ng/mL
AUC(0-t) ([3]; read-out: AUC0-24): 9680 ng·h/mL
SMILES: COc1cc(C)c2[nH]ccc2c1O[C@@H]1CCN(CC(F)F)C[C@H]1c1ccc(C(=O)O)cc1 [Example 13a-2, 4-((3R,4R)-1-(2,2-difluoroethyl)-4-((5-methoxy-7-methyl-1H-indol-4-yl)oxy)piperidin-3-yl)benzoic acid]
Arthritis score ([5]; Day0): 0.00
Thickness of foot pads (mm) ([5]; Day0): 1.60 mm
Arthritis score ([5]; Day3): 0.00
Thickness of foot pads (mm) ([5]; Day3): 1.607 mm
Arthritis score ([5]; Day5): 1.17
Thickness of foot pads (mm) ([5]; Day5): 1.632 mm
Arthritis score ([5]; Day7): 1.83
Thickness of foot pads (mm) ([5]; Day7): 1.665 mm
Arthritis score ([5]; Day10): 1.50
Thickness of foot pads (mm) ([5]; Day10): 1.666 mm
Arthritis score ([5]; Day12): 1.33
Thickness of foot pads (mm) ([5]; Day12): 1.661 mm
Arthritis score ([5]; Day14): 1.50
Thickness of foot pads (mm) ([5]; Day14): 1.669 mm

IC50 [1]: 10.2 nM
IC50 [2]: 59.3 nM
Cmax [3]: 1370 ng/mL
AUC(0-t) ([3]; read-out: AUC0-24): 6690 ng·h/mL
SMILES: COc1cc(C)c2[nH]ccc2c1O[C@@H]1CCN(CC(F)(F)F)C[C@H]1c1ccc(C(=O)O)cc1 [Example 14a-2, 4-((3R,4R)-4-((5-methoxy-7-methyl-1H-indol-4-yl)oxy)-1-(2,2,2-trifluoroethyl)piperidin-3-yl)benzoic acid]
Arthritis score AUC [4]: 3.00
